This is an account of results in ChEMBL document CHEMBL1201862, “PubChem BioAssay data set” (2004).

Some test systems named below: A549; ACHN; CAKI-1; HL-60; KM12; LOX IMVI; MCF7; Malme-3M; NCI/ADR-RES; PC-3; SF-295; SF-539; SR; TK-10; U-251; IGROV-1; HT-29; T47D.
Holding throughout (test): growth of human tumour cells (NCI), 48 h

Where “and” joins values, the source holds several entries; their conditions need not be identical. Equal values may be shown once.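 Grown in 96-well plates, cells were treated for 48 hours with each compound at five concentrations. Insufficient inhibition: endpoint recorded as highest concentration tested. Here, GI50 denotes the concentration required for 50% inhibition of growth.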 Calls of active or inactive are those of the source. Cut-off read from the data, not from the text of the source: active = GI50 up to about 1.1 µM and inactive = higher. Bounds are passed on as bounds.

As to `N=C(N)N/N=C/c1c(-c2cc([N+](=O)[O-])c(Cl)cc2Cl)nc2sccn12`, the GI50 was 1.82 µM (inactive) and 1.51 µM (inactive) in the assay with A549; 527 nM (active) and 1.67 µM (inactive) in the assay with ACHN; 6.27 µM (inactive) in the assay with CAKI-1; 2.27 µM (inactive) and 1.53 µM (inactive) with HL-60; 168 nM (active) and 1.19 µM (inactive) with KM12; 130 nM (active) and 1.18 µM (inactive) in the assay with LOX IMVI. In addition, the GI50 was 1.26 µM (inactive) in the assay on MCF7; 1.67 µM (inactive) and 239 nM (active) with Malme-3M; > 100 µM (inactive) in the assay on NCI/ADR-RES; 1.45 µM (inactive) and 2.01 µM (inactive) in the assay on PC-3; 1.56 µM (inactive) and 1.47 µM (inactive) in the assay with SF-295; 1.53 µM (inactive) and 1.85 µM (inactive) in the assay on SF-539. For the same compound, the GI50 with SR was 0.0368 µM (active); in the assay on TK-10, 1.54 µM (inactive) and 1.57 µM (inactive); in the assay on U-251 it was 1.05 µM (active) and 272 nM (active).

Take `C[C@H](c1ccccc1)N1C(=O)[C@@H](OCc2ccccc2)[C@H]1[C@H](COC(=O)COCc1ccccc1)OCc1ccccc1`: the GI50 in the assay on A549, in the assay on ACHN, in the assay with IGROV-1, in the assay with KM12, in the assay on LOX IMVI and in the assay with MCF7 was > 100 µM (inactive) in each case. The GI50 was 11.6 µM (inactive) with Malme-3M; 77.4 µM (inactive) with PC-3; > 100 µM (inactive) in the assay on SF-295; > 100 µM (inactive) in the assay with SR; > 100 µM (inactive) in the assay with TK-10; > 100 µM (inactive) in the assay on U-251.

As to `CCOP(=O)(OCC)C1CC(O)C(=O)N1` (configuration not stated), the GI50 in the assay on A549, with ACHN, in the assay with HT-29, in the assay with IGROV-1, in the assay with KM12 and in the assay on LOX IMVI was > 100 µM (inactive) each time. Also, the GI50 in the assay with MCF7, with Malme-3M, with NCI/ADR-RES, in the assay with PC-3, in the assay with SF-295 and with SR was > 100 µM (inactive) throughout. The GI50 in the assay on TK-10 and in the assay on U-251 was > 100 µM (inactive) throughout.

As to `COc1nc(NC2OC(COC(C)=O)C(OC(C)=O)C(OC(C)=O)C2OC(C)=O)c(/N=C/C=N/c2c(NC3OC(COC(C)=O)C(OC(C)=O)C(OC(C)=O)C3OC(C)=O)nc(OC)[nH]c2=O)c(=O)[nH]1` (configuration not stated), the GI50 with A549, in the assay with ACHN, with CAKI-1, in the assay with HL-60, in the assay with HT-29 and in the assay on IGROV-1 was > 100 µM (inactive) each time. Also, the GI50 with KM12, with LOX IMVI, with Malme-3M, in the assay with SF-295, with SF-539 and in the assay on TK-10 was > 100 µM (inactive) throughout. In addition, the GI50 with U-251 was > 100 µM (inactive).

With `CSc1nc(C#N)c(/N=C\N(C)C)n1C`, the GI50 with A549, in the assay with ACHN, in the assay with CAKI-1, in the assay with HL-60, with IGROV-1 and in the assay with KM12 was > 100 µM (inactive) in each case. Also, the GI50 with LOX IMVI, with Malme-3M, in the assay on NCI/ADR-RES, in the assay with PC-3, in the assay with SF-295 and in the assay with SF-539 was > 100 µM (inactive) in each case. In addition, the GI50 in the assay on SR, in the assay on T47D, in the assay on TK-10 and in the assay on U-251 was > 100 µM (inactive) in each case.

Turning to `Cc1ccc(C(=O)OC[C@H]2CC[C@@H](n3cc(N(C)C4CCCCC4)c(=O)[nH]c3=O)O2)cc1`, the GI50 in the assay on A549 is 28.7 µM (inactive); in the assay on ACHN, 26.6 µM (inactive); in the assay on CAKI-1 it was 31.4 µM (inactive); with HL-60 it was 27.9 µM (inactive); in the assay on HT-29 it was 18.5 µM (inactive); in the assay with IGROV-1, 33.4 µM (inactive). The GI50 in the assay with KM12 was 19.6 µM (inactive); in the assay on LOX IMVI it was 19.1 µM (inactive); in the assay on MCF7, 22.1 µM (inactive); in the assay with Malme-3M, 24.7 µM (inactive); in the assay with NCI/ADR-RES, 20 µM (inactive); in the assay on PC-3, 29.4 µM (inactive). In addition, the GI50 in the assay with SF-295 is 15.7 µM (inactive); in the assay with SF-539, 23.8 µM (inactive); with SR, 95.7 µM (inactive); with TK-10, 30 µM (inactive); in the assay with U-251 it was 20.2 µM (inactive).

`CSC1=N/C(=C\c2cccs2)C(=O)N1CN1CCOCC1`: the GI50 in the assay with A549 is > 100 µM (inactive); in the assay with ACHN, 37.2 µM (inactive); with HL-60 it was 0.0465 µM (active); with HT-29, 24.9 µM (inactive); in the assay with IGROV-1, 41.5 µM (inactive); in the assay with KM12, 57.7 µM (inactive). Further, the GI50 in the assay with LOX IMVI is 33.1 µM (inactive); in the assay with MCF7 it was 32.2 µM (inactive); in the assay with Malme-3M, 44.7 µM (inactive); in the assay with NCI/ADR-RES it was 14.3 µM (inactive); in the assay with PC-3, 50.8 µM (inactive); with SF-295, > 100 µM (inactive). In addition, the GI50 is 17.4 µM (inactive) with SR, 86.7 µM (inactive) in the assay on TK-10 and 85.5 µM (inactive) with U-251.

For `c1ccc2c(c1)nc1n2sc2nc3ccccc3n21`, the GI50 in the assay with A549, with CAKI-1, in the assay with HL-60, with HT-29, with IGROV-1 and in the assay on KM12 was > 100 µM (inactive) in each case. Also, the GI50 with LOX IMVI is > 100 µM (inactive); with MCF7, 35.6 µM (inactive); with NCI/ADR-RES, > 100 µM (inactive); in the assay on PC-3 it was > 100 µM (inactive); with SF-295 it was > 100 µM (inactive); with SF-539 it was > 100 µM (inactive). Besides, the GI50 with SR, with TK-10 and in the assay on U-251 was > 100 µM (inactive) in each case.

With `S=C(c1c[nH]c2ccccc12)N1CCN(c2ccccc2)CC1`, the GI50 with ACHN was 87.1 µM (inactive); in the assay with CAKI-1, > 100 µM (inactive); in the assay on HL-60, > 100 µM (inactive); in the assay on HT-29, 59.6 µM (inactive); in the assay on IGROV-1, 7.11 µM (inactive); in the assay on KM12, 82.8 µM (inactive). Besides, the GI50 with LOX IMVI was > 100 µM (inactive); with MCF7, > 100 µM (inactive); in the assay with Malme-3M, 18.8 µM (inactive); in the assay with NCI/ADR-RES it was 34.9 µM (inactive); with PC-3, > 100 µM (inactive); with SF-295, 79.8 µM (inactive). Moreover, the GI50 is 71.6 µM (inactive) with SF-539, > 100 µM (inactive) with SR, > 100 µM (inactive) in the assay on TK-10 and 14.2 µM (inactive) with U-251.

With `C=C(Cl)/C(=C\Cl)CCC(Cl)C(C)C` (configuration not stated), the GI50 in the assay with A549 was > 100 µM (inactive); with ACHN, > 100 µM (inactive); with CAKI-1, > 100 µM (inactive); in the assay on HL-60, 56.2 µM (inactive); in the assay on HT-29, > 100 µM (inactive); with IGROV-1 it was > 100 µM (inactive). Moreover, the GI50 in the assay with KM12 is > 100 µM (inactive); in the assay with LOX IMVI, 35.1 µM (inactive); with MCF7 it was > 100 µM (inactive); in the assay on Malme-3M it was > 100 µM (inactive); in the assay on NCI/ADR-RES, > 100 µM (inactive); in the assay with PC-3, > 100 µM (inactive). Besides, the GI50 in the assay with SF-295 was > 100 µM (inactive); in the assay with SF-539, > 100 µM (inactive); in the assay with SR, 56.5 µM (inactive); in the assay on TK-10, > 100 µM (inactive); in the assay on U-251, > 100 µM (inactive).

As for `CC(=O)OCC1=C(C)C(OC(=O)C(OC(C)=O)[C@@H](NC(=O)c2ccccc2)c2ccccc2)CCC1(C)C` (some centres not stated), the GI50 in the assay with A549, with ACHN, in the assay with CAKI-1, with HL-60, in the assay on HT-29 and in the assay with IGROV-1 was > 100 µM (inactive) each time. The GI50 with KM12, in the assay with LOX IMVI, in the assay with MCF7, in the assay on Malme-3M, in the assay on NCI/ADR-RES and in the assay on SF-295 was > 100 µM (inactive) throughout. Also, the GI50 in the assay on SF-539, with SR, in the assay with T47D, with TK-10 and with U-251 was > 100 µM (inactive) throughout.

Consider `C=C1C(=O)O[C@H]2C1C[C@@H](O)[C@@]1(C)OC1CC[C@@]1(C)O[C@H]21` (some centres not stated), for which the GI50 was > 100 µM (inactive) in the assay on A549; 13.7 µM (inactive) in the assay with ACHN; 16.7 µM (inactive) in the assay with CAKI-1; 32.8 µM (inactive) in the assay on HT-29; > 10 µM (inactive) in the assay on IGROV-1; 20.6 µM (inactive) in the assay with KM12. For the same compound, the GI50 in the assay with LOX IMVI was 13.2 µM (inactive); in the assay on MCF7, 14.8 µM (inactive); in the assay with Malme-3M, 11.7 µM (inactive); in the assay on NCI/ADR-RES it was 20.7 µM (inactive); in the assay on PC-3 it was 27.2 µM (inactive); in the assay on SF-295 it was 99.1 µM (inactive). Also, the results for the GI50 with SR, with TK-10 and in the assay on U-251 were 14.1 µM (inactive), 17.8 µM (inactive) and > 100 µM (inactive), respectively.
